Measurements published in the NIST ThermoML archive (doi:10.1016/j.jct.2015.11.020).
Where “and” joins values, the source holds several entries; their conditions need not be identical. Equal values may be shown once.

Assay: mn = molality of the nth substance listed, in mol/kg
Conditions: 100 kPa, Liquid; for speed of sound: Frequency=3 MHz, Sing-around technique in a fixed-path interferometer; for mass density: Vibrating tube method

N[C@@H](CO)C(=O)O [L-serine] + O
Conditions | mass density, 305.15 K [kg/m3] | mass density, 310.15 K [kg/m3] | mass density, 315.15 K [kg/m3] | speed of sound, 305.15 K [m/s] | speed of sound, 310.15 K [m/s] | speed of sound, 315.15 K [m/s]
m1 = 0.1012 | 999.763 | 997.637 | 995.748 | 1519.7 | 1529.4 | 1537.7
m1 = 0.1997 | 1003.99 | 1001.83 | 999.945 | 1525.5 | 1535.1 | 1543.3
m1 = 0.3 | 1008.2 | 1006.11 | 1004.22 | 1531.1 | 1540.5 | 1548.4
m1 = 0.3986 | 1012.53 | 1010.31 | 1008.42 | 1536.8 | 1546.1 | 1554
m1 = 0.4987 | 1016.75 | 1014.57 | 1012.68 | 1542.2 | 1551.4 | 1559.2
m1 = 0.6008 | 1021.43 | 1018.92 | 1017.03 | 1548 | 1556.9 | 1564.5
m1 = 0.6973 | 1025.53 | 1023.03 | 1021.14 | 1553.3 | 1562.2 | 1569.6
m1 = 0.8 | 1029.74 | 1027.41 | 1025.52 | 1558.8 | 1567.6 | 1575
m1 = 0.9003 | 1033.96 | 1031.68 | 1029.79 | 1564 | 1572.7 | 1579.9
m1 = 0.9963 | 1037.97 | 1035.77 | 1033.88 | 1569.2 | 1577.7 | 1584.9

C[C@@H](O)[C@H](N)C(=O)O [L-threonine] + O
Conditions | mass density, 305.15 K [kg/m3] | mass density, 310.15 K [kg/m3] | mass density, 315.15 K [kg/m3] | speed of sound, 305.15 K [m/s] | speed of sound, 310.15 K [m/s] | speed of sound, 315.15 K [m/s]
m1 = 0.09989 | 999.283 | 997.513 | 995.687 | 1521 | 1530.7 | 1538.9
m1 = 0.1997 | 1003.52 | 1001.69 | 999.928 | 1528 | 1537.5 | 1545.4
m1 = 0.2989 | 1007.74 | 1005.85 | 1004.15 | 1535 | 1544.6 | 1552
m1 = 0.3989 | 1011.99 | 1010.04 | 1008.4 | 1542.2 | 1551.1 | 1559
m1 = 0.5002 | 1016.3 | 1014.29 | 1012.7 | 1549.1 | 1558.1 | 1566
m1 = 0.5982 | 1020.46 | 1018.39 | 1016.87 | 1555.7 | 1564.8 | 1573.1
m1 = 0.6471 | 1022.54 | 1020.44 | 1018.94 | 1559 | 1567.9 | 1576.5
m1 = 0.7007 | 1024.82 | 1022.69 | 1021.22 | 1562.4 | 1571.7 | 1580.1
m1 = 0.7476 | 1026.81 | 1024.65 | 1023.22 | 1565.7 | 1575.1 | 1583.3
m1 = 0.7854 | 1028.42 | 1026.23 | 1024.82 | 1568.4 | 1577.8 | 1585.9

CN(C)C(=N)NC(=N)N.Cl [N,N-dimethylimidodicarbonimidic diamide hydrochloride] + O
Conditions | mass density, m1 = 0.03 [kg/m3] | mass density, m1 = 0.045 [kg/m3] | mass density, m1 = 0.06 [kg/m3] | mass density, m1 = 0.09 [kg/m3] | speed of sound, m1 = 0.03 [m/s] | speed of sound, m1 = 0.045 [m/s] | speed of sound, m1 = 0.06 | speed of sound, m1 = 0.09 [m/s]
305.15 K | 996.159 | 996.716 | 997.319 | 998.393 | 1516.5 | 1518 | 1519.3 m/s and 1519.3 m/s | 1522
310.15 K | 994.44 | 994.953 | 995.586 | 996.654 | 1526.3 | 1527.7 | 1529 m/s | 1531.5
315.15 K | 992.549 | 993.115 | 993.681 | 994.744 | 1534.4 | 1535.9 | 1537.2 m/s | 1539.6

O [water] + CN(C)C(=N)NC(=N)N.Cl
m2 = 0
Conditions | mass density [kg/m3] | speed of sound [m/s]
305.15 K | 995.038 | 1513.7
310.15 K | 993.328 | 1523.6
315.15 K | 991.439 | 1532.1

O [water] + C[C@@H](O)[C@H](N)C(=O)O
m2 = 0
Conditions | mass density [kg/m3] | speed of sound [m/s]
305.15 K | 995.038 | 1513.7
310.15 K | 993.328 | 1523.6
315.15 K | 991.439 | 1532.1

O [water] + N[C@@H](CO)C(=O)O
m2 = 0
Conditions | mass density [kg/m3] | speed of sound [m/s]
305.15 K | 995.038 | 1513.7
310.15 K | 993.328 | 1523.6
315.15 K | 991.439 | 1532.1
